Assay results reported in patent US11185532B2, “Methods of treating pruritus” (Clexio Biosciences Ltd., priority 2019, dated 2021).
Read-outs that look alike come from different tables or passages of the source.

Columns and labels:
SST4 [1] = molecular target: T1, SST4 (Homo sapiens, UniProt P31391); assay: In vitro functional assay, SST4; assay type: cell-based; settings: agonist; highest concentration tested 10 μm
HRH4 = molecular target: T2, HRH4 (Homo sapiens, UniProt Q9H3N8); assay: β-arrestin GPCR internalization assay; assay type: cell-based; settings: for EC50: read-out: RC50 (EC50)
T2 construct: Eurofins Discover X, USA
T2 sequence (Q9H3N8 whole entry): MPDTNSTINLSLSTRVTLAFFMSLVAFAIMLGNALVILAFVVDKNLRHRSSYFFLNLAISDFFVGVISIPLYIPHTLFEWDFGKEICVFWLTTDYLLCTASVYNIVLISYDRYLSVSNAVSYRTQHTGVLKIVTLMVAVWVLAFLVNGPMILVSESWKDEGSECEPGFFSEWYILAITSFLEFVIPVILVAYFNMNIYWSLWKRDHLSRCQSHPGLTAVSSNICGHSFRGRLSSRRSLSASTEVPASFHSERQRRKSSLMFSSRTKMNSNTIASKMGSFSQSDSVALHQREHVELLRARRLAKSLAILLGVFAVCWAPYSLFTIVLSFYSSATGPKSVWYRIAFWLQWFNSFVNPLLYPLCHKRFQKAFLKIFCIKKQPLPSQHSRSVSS

[2] = test system: PNT-induced neuropathic pain in pigs; assay: Peripheral neuritis trauma (PNT)-induced neuropathic pain in pigs; assay type: in vivo; settings: topical twice daily 0.1%, 0.33%, 1%
Excerpt: 30 pigs were anaesthetized and an incision of 8-10 cm made through the skin and fascia on the left side of their lower backs, approximately 1 cm lateral and parallel to the spine line. The muscles were retracted and the sciatic nerve exposed. Following exposure, PNT was induced by loosely tying (1-2 mm apart) around the lateral half of the sciatic nerve bundle, three 3-0 silk threads, each previously immersed in complete Freund's adjuvant. 14 days after surgery and once chronic neuropathic pain had been established, treatment was initiated according to the protocol shown in Table 5. [table] At time points over the following 14 days, the animals were assessed for a variety of pain and motor parameters.

SST4 [3] = molecular target: T1, SST4; assay: biochemical
Adrenergic α2A = Adrenergic α2A (Homo sapiens, UniProt P08913); assay: biochemical
Chain of Adrenergic α2A (P08913 whole entry): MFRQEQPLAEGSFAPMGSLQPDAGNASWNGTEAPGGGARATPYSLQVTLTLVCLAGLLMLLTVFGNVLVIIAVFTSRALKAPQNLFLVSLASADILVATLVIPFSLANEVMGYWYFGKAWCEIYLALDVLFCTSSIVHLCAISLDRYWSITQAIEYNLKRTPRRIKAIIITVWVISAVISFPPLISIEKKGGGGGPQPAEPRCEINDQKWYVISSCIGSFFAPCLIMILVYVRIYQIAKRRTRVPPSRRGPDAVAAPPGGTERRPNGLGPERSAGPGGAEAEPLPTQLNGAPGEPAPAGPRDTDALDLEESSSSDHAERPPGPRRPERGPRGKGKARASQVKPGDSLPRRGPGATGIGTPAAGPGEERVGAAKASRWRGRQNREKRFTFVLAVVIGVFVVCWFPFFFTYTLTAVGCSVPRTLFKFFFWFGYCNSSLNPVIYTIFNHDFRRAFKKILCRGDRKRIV

Adrenergic α2C = Adrenergic α2C (Homo sapiens, UniProt P18825); assay: biochemical
Chain of Adrenergic α2C (P18825 whole entry): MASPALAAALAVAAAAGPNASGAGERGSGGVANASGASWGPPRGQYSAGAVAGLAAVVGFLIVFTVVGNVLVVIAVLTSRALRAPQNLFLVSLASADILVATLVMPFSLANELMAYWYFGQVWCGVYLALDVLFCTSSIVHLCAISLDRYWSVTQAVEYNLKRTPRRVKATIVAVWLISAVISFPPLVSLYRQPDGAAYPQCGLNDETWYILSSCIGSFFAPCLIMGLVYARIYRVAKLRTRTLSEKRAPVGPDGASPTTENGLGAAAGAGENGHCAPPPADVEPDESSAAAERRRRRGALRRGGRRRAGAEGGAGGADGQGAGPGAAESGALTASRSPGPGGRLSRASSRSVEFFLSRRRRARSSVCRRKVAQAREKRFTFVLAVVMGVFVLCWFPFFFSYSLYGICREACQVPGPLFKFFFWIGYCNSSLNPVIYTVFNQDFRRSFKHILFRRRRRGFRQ

T1 sequence (P31391 whole entry): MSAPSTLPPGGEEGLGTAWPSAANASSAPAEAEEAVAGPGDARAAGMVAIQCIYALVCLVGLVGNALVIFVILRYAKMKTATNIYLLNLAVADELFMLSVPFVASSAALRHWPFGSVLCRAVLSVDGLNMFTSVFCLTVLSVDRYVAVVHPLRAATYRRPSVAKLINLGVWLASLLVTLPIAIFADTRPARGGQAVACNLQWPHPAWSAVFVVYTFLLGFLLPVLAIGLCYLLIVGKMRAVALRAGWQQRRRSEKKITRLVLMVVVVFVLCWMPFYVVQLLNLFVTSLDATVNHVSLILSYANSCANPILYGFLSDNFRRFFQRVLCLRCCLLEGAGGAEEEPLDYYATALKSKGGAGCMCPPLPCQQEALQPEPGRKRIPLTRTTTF

## Cc1cccc(Cc2c[nH]cn2)c1C [detomidine]
SST4 [1]
  EC50: 7.3 µM
HRH4; assay format: Agonist
  EC50: 9.6 µM
HRH4; assay format: Antagonist, read-out: RC50 (IC50)
  IC50: > 100 µM
HRH4; assay format: Inverse agonist
  EC50: > 100 µM
[2]; 14 days, versus placebo, from Day 0
  Stimulus-evoked pain, Von Frey (VF) withdrawal threshold: dose-dependent analgesic effect
[2]; 12-13 cm pigeon feather, as soon as Day 0
  Tactile allodynia, feather stimulation: dose-dependent decreased tactile allodynia
[2]; 3 h and 6 h post-dose, from Day 0
  Spontaneous pain behavior, General Behavioral Score (GBS): dose-dependent reduction in GBS scores
[2]; throughout the study
  Open field motor test, locomotor activity / sedation: did not affect locomotor activity at any dose level
SST4 [3]
  inhibition at 10 µM: 35%

## Clc1cccc(Cl)c1N=C1NCCN1 [clonidine]
Adrenergic α2A
  inhibition at 10 µM: 94%
Adrenergic α2C
  inhibition at 10 µM: 97%
SST4 [3]
  inhibition at 10 µM: 13%
